“Also recorded” adds a separate entry of the source. Bridges are numbered along the chain shown (N, C = ends). Where no end group is shown, it is not given here.
Assays:
hKv2.1 = experiment: TEVC, Kv2.1 in Xenopus oocytes; assay type: cell-based, human
Description: (§1) For the expression of Kv channels (rKv1.1, rKv1.2, rKv1.3, rKv1.4, rK1.5, rKv1.6, hKv2.1, hKv3.1, rKv4.2, hKv7.1, hKv7.2/7.3, hKv7.4, KQT1 (from the roundworm Caenorhabditis elegans), hKv10.1 (hEAG1), hKv11.1 (hERG1), and Shaker, from Drosophila melanogaster), Nav channels (rNav1.1, rNav1.2, rNav1.3, rNav1.4, hNav1.5, mNav1.6, hNav1.7, hNav1.8, and BgNav (from the cockroach Blattella germanica), as well as the hβ1 and rβ1 subunits, and Cav channels (rCav3.1, hCav3.2, and rCav3.3) in Xenopus oocytes, the linearized plasmids were transcribed using the T7 or SP6 mMESSAGEmMACHINE transcription kit (Ambion, Austin, TX, USA). Mature female animals were purchased from Nasco (Fort Atkinson, WI, USA) and were housed in the Aquatic Facility (KU Leuven) in compliance with the regulations of the European Union (EU) concerning the welfare of laboratory animals as declared in Directive 2010/63/EU. The use of X. laevis oocytes was approved by the Animal Ethics Committee of the KU Leuven, with the license number P186/2019.
(§2) Stage V–VI oocytes were collected from anesthetized female X. laevis frog as previously described, with the frogs anesthetized by placement in a 0.1% tricaine solution (amino benzoic acid ethyl ester; Merck, Kenilworth, NJ, USA). Oocyte microinjection was performed using a microinjector (Drummond Scientifc®, Broomall, PA, USA), with a programmed cRNA injection volume of 4–50 nL, depending on channel subtype. The oocytes were incubated in ND96 solution (96 mM NaCl; 2 mM KCl; 1.8 mM CaCl2; 2 mM MgCl2, and 5 mM HEPES, pH 7.4), supplemented with 50 mg/L of gentamicin sulfate.
(§3) Electrophysiological measurements were performed at room temperature (18–22 °C) using the two-electrode voltage-clamp (TEVC) technique. Data were obtained using a GeneClamp 500 amplifier (Axon Instruments®, Burlingame, CA, USA) and Clampex9 software (Axon Instruments®, USA) was responsible for data acquisition and storage. Glass micropipettes were produced using glass capillaries (borosilicate WPI 1B120-6) and drawn in a WPI (World Precision Instruments®, Sarasota, FL, USA) manual stretcher. The bath and perfusion solutions were either the previously described ND96 (Nav and Kv channels) or calcium-free ND96 supplemented with 10 mM BaCl2 (Cav channels).
Whole-cell currents of oocytes were recorded 1 to 3 days after RNA injection. The current and voltage electrodes were filled with 3 M KCl, and their resistance was adjusted from 1.0 to 2.5 MΩ. Currents were sampled at 20 kHz (Nav channels) and 10 kHz (Kv and Cav channels) and filtered using a four-pole Bessel low-pass Bessel filter at 1 kHz for sodium and […] for potassium and calcium, except for the hERG ion channel in which the currents were filtered at 1 kHz. Leak subtraction was performed using a P/4 protocol. Kv1.x currents were evoked by 500 ms depolarizations to 0 mV, followed by a 500 ms pulse to −50 mV from a holding potential of −90 mV. Kv2.1, Kv3.1, Kv4.2, Kv7.x, and KQT1 currents were elicited by 700 ms pulses to +20 mV from a holding potential of −90 mV. Current traces of the hERG1 channel were elicited by applying a +40 mV prepulse for 2 s, followed by a step of −120 mV for 2 s. […] The current–voltage relationships were determined by 50 ms step depolarizations between −90 and +65 mV using 5 or 10 mV increments. All electrophysiological data were analyzed following the procedures described by Peigneur et al., 2012 [20].
(§4) All values were expressed as means ± SEM. […]

hKv7.2/7.3 = experiment: TEVC, Kv7.2/7.3 in Xenopus oocytes; assay type: cell-based, human
Description: as §1, §2, §3
(§5) Whole-cell currents of oocytes were recorded 1 to 3 days after RNA injection. The current and voltage electrodes were filled with 3 M KCl, and their resistance was adjusted from 1.0 to 2.5 MΩ. […] The current–voltage relationships were determined by 50 ms step depolarizations between −90 and +65 mV using 5 or 10 mV increments. All electrophysiological data were analyzed following the procedures described by Peigneur et al., 2012 [20].
as §4

Shaker = experiment: TEVC, Shaker in Xenopus oocytes; assay type: cell-based, Drosophila melanogaster; conditions: 1 µM, ND96 pH 7.4, 18–22 °C, n ≥ 3
Description: as §1, with “P186/2019. […]” for “P186/2019.”
as §5, with “injection.” for “injection. The current and voltage electrodes were filled with 3 M KCl, and their resistance was adjusted from 1.0 to 2.5 MΩ.”
as §4

[1] = 1 µM, TEVC, ND96 pH 7.4, 18–22 °C, n ≥ 3

GTPCKCHGYIGVYWFMLAGCPNGYGYNLSCPYFLGICCVKK (disulfide 4-37, 6-30, 20-38 (inferred)) [Hcr 1b-2]
gating-modifier effect (voltage-current relationship), Kv2.1 (hKv2.1; 1 µM): non-significant gating-modifier effect | Shift in Vhalf activation, Kv2.1 (hKv2.1; 1 µM vs control (ND96)): 2.6 mV | activity (inhibition of current), Kv2.1 (hKv2.1; 1 µM, 700 ms pulse to +20 mV from −90 mV, mean ± SEM, n ≥ 3): 32.6 ± 3.4% | effect on potassium current, Kv2.1 (hKv2.1; [1]): inhibition | Vhalf activation, Kv2.1 (hKv2.1; 1 µM, control (ND96) 5.3 ± 0.3, mean ± SEM): 8.0 ± 0.2 mV | gating-modifier effect (voltage-current relationship), Kv7.2/7.3 (hKv7.2/7.3; 1 µM): non-significant gating-modifier effect | Shift in Vhalf activation, Kv7.2/7.3 (hKv7.2/7.3; 1 µM vs control (ND96)): 1.3 mV | effect on potassium current, Kv7.2/7.3 (hKv7.2/7.3; [1]): inhibition; also recorded: inhibits | Vhalf activation, Kv7.2/7.3 (hKv7.2/7.3; 1 µM, control (ND96) 14.6 ± 0.5, mean ± SEM): 15.9 ± 0.7 mV | effect on potassium current, Shaker (Shaker): activation
